System: striatum of Parkinson's disease (PD) model (6-OHDA) mice
Experiment: FSCV/SDBR measurement of tonic dopamine concentration in the striatum after levodopa infusion
Type: in vivo
Settings: FSCV with SDBR, levodopa injected after about 15 minutes flat signal, increases for about 25 minutes, then re-saturates
From the text: FIGS. 8A and 8B illustrate results of measuring a neurotransmitter concentration in an in vivo experiment using the neurotransmitter concentration measuring apparatus according to an embodiment of the present disclosure. FIGS. 8A and 8B illustrate examples for confirming SDBR-based tonic dopamine measurement results, which can be confirmed through long-term measurement using standard FSCV data, through in vivo experiments by a neurotransmitter concentration measuring apparatus according to an embodiment of the present disclosure. The graphs 810 to 813 are shown to compare the results measured in the striatum of mice after levodopa infusion. To confirm the practicality of SDBR in the in vivo environment, FSCV results after levodopa infusion of the striatum of healthy mice and the striatum of Parkinson's disease (PD) model (6-OHDA) mice are shown in FIGS. 8A and 8B. Meanwhile, the graphs 810 to 813 of FIG. 8B show the results measured by FSCV in the striatum 15 minutes after levodopa was directly injected into the experimental mice, and the graphs 810 and 811 indicate that the amplitude of the dopamine peak consistently increases independent of drug infusion due to the background subtraction technique.

## N[C@@H](Cc1ccc(O)c(O)c1)C(=O)O [levodopa]
  estimated dopamine concentration after levodopa infusion (SDBR): 72.4 nM
